Measured values reported in ChEMBL document CHEMBL1146078, “Discovery and preclinical studies of (R)-1-(4-(4-fluoro-2-methyl-1H-indol-5-yloxy)-5- methylpyrrolo[2,1-f][1,2,4]triazin-6-yloxy)propan- 2-ol (BMS-540215), an in vivo active potent VEGFR-2 inhibitor” (J Med Chem, 2006).
Each block holds one molecule with its values, some of them ahead of it.

Key:
[1] = AUC in mice at 50 mg/kg after 4 hrs; format: ADME, organism-based; set-up: time < 4 hr, dose 50 mg/kg; conditions: mouse, plasma
hERG = hERG (Homo sapiens, UniProt Q12809); assay: Inhibitory activity against hERG by patch-clamp assay at 1 uM; format: functional
Sequence of hERG (Q12809 whole entry): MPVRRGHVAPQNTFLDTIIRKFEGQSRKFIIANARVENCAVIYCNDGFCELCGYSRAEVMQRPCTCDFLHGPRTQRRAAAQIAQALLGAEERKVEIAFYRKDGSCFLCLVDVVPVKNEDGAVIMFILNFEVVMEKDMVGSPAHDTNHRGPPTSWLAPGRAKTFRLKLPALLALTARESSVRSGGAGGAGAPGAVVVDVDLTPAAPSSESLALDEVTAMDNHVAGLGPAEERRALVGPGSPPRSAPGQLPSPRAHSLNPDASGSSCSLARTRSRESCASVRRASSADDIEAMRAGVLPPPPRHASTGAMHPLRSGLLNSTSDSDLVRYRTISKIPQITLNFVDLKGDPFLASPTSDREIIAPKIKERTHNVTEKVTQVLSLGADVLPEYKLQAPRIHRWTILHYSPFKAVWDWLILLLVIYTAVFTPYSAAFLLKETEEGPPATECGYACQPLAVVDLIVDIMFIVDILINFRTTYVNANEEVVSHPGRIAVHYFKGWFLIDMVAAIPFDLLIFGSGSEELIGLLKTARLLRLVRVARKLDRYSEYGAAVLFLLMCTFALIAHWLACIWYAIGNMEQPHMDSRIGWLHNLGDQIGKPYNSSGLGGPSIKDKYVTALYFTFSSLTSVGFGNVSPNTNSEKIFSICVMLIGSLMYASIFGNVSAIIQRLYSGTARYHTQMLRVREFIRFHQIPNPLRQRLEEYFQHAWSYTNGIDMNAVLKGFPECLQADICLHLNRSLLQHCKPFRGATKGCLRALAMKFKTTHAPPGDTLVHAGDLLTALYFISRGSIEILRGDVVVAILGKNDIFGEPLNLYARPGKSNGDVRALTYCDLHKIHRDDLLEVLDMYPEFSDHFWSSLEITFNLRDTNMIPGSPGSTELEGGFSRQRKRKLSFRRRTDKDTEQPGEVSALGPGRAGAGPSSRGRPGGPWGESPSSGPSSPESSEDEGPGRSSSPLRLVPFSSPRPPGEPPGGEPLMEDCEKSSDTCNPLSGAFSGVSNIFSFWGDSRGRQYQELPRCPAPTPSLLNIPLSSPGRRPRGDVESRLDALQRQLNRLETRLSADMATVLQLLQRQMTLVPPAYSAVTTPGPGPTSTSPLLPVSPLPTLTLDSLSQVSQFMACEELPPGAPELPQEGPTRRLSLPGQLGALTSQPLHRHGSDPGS

Cytochrome P450 3A4 = Cytochrome P450 3A4 (Homo sapiens, UniProt P08684); assay: Inhibitory activity against CYP3A4
Sequence of Cytochrome P450 3A4 (P08684 whole entry): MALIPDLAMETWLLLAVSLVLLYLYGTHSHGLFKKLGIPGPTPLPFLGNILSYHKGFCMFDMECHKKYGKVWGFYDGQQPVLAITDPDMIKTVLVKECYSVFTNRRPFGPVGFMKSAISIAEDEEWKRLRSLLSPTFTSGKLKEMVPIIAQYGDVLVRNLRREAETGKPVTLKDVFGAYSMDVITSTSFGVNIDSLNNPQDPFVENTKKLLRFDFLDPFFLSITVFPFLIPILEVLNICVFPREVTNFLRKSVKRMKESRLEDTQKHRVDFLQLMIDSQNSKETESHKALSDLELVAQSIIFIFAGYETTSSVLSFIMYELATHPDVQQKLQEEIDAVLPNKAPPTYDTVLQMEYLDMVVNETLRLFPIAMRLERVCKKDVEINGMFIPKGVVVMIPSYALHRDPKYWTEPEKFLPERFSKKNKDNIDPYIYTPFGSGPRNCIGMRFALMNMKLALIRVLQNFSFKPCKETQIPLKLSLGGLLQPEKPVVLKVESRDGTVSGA

[2] = Cmax in mice at 50 mg/kg after 4 hrs; format: ADME, organism-based; set-up: dose 50 mg/kg; conditions: mouse, in vivo
[3] = target: Voltage-gated inwardly rectifying potassium channel KCNH2 (Homo sapiens, UniProt Q12809); assay: Inhibitory activity against hERG by patch-clamp assay; format: functional
Sequence of Voltage-gated inwardly rectifying potassium channel KCNH2 (Q12809 whole entry): as the sequence (Q12809 whole entry) above

[4] = Cmax in rat at 25 mg/kg as solution after 24 hrs; format: ADME, organism-based; set-up: dose 25 mg/kg; conditions: in vivo
[5] = AUC in BALB/c mouse at 60 mg/kg, po after 24 hrs; format: ADME, organism-based; set-up: time < 24 hr, dose 60 mg/kg, route oral; conditions: plasma
[6] = Volume of distribution in BALB/c mouse at 10 mg/kg, iv after 24 hrs; format: ADME, organism-based; set-up: dose 10 mg/kg, route intravenous; conditions: in vivo, read-out: Vss
[7] = AUC in rat at 25 mg/kg as solution after 24 hrs; format: ADME, organism-based; set-up: time < 24 hr, dose 25 mg/kg; conditions: plasma
[8] = AUC in BALB/c mouse at 10 mg/kg, iv after 24 hrs; format: ADME, organism-based; set-up: time < 24 hr, dose 10 mg/kg, route intravenous; conditions: plasma
[9] = Mean residence time in BALB/c mouse at 10 mg/kg, iv after 24 hrs; format: ADME, organism-based; set-up: dose 10 mg/kg, route intravenous; conditions: in vivo
[10] = Cmax in rat at 25 mg/kg as micronized suspension after 24 hrs; format: ADME, organism-based; set-up: dose 25 mg/kg; conditions: in vivo
[11] = Half life in BALB/c mouse at 60 mg/kg, po after 24 hrs; format: ADME, organism-based; set-up: dose 60 mg/kg, route oral; conditions: in vivo
[12] = Tmax in male BALB/c mice; format: ADME, organism-based; conditions: mouse, in vivo
[13] = target: Vascular endothelial growth factor receptor 2 (Mus musculus, UniProt P35918); assay: Inhibitory activity against Flk1
Sequence of Vascular endothelial growth factor receptor 2 (P35918 whole entry): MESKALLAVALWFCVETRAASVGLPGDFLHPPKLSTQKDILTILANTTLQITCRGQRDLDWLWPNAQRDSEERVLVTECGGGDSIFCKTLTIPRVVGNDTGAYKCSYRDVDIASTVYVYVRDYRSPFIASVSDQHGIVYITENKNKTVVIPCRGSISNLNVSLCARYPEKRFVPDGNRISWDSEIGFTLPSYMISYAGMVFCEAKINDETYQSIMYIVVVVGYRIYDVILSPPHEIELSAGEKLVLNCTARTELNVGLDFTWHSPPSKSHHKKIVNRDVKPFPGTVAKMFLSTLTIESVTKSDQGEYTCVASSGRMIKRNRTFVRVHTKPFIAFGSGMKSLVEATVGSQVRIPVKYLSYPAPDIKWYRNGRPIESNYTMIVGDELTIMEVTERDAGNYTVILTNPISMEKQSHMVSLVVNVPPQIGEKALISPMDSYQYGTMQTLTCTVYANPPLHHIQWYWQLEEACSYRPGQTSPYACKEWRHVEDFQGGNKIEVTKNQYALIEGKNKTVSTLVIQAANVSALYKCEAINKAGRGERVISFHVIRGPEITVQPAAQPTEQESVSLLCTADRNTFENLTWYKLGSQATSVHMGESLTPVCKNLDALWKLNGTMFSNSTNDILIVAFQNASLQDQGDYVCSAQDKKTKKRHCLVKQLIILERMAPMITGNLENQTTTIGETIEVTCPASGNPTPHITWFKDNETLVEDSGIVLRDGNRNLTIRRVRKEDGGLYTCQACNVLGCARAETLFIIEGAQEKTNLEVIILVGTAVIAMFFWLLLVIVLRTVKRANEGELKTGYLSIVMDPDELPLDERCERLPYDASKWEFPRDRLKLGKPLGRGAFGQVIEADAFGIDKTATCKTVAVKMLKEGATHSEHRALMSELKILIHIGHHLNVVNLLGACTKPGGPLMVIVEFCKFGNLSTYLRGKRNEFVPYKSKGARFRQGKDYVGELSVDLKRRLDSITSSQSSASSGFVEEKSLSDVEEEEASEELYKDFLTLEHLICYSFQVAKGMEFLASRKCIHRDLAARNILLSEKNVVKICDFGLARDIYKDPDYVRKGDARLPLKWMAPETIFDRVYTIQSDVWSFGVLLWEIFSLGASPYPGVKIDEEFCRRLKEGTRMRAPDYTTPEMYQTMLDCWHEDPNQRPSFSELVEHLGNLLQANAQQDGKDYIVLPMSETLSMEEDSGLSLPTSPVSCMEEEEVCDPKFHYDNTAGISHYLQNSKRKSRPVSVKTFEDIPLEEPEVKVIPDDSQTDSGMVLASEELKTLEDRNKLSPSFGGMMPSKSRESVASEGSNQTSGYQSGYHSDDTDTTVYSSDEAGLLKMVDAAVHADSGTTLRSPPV

H3396 [14] = assay: Antitumor activity against H3396 cell xenografted in athymic mice at 90 mg/kg; format: functional, Homo sapiens
[15] = Oral bioavailability in BALB/c mouse at 60 mg/kg, po after 24 hrs; format: ADME, organism-based; conditions: in vivo
H3396 [16] = assay: Antitumor activity against H3396 cell xenografted in athymic mice at 60 mg/kg; format: functional, Homo sapiens
[17] = AUC in rat at 200 mg/kg as micronized suspension after 24 hrs; format: ADME, organism-based; set-up: time < 24 hr, dose 200 mg/kg; conditions: plasma
[18] = Half life in BALB/c mouse at 10 mg/kg, iv after 24 hrs; format: ADME, organism-based; set-up: dose 10 mg/kg, route intravenous; conditions: in vivo
[19] = Cmax in rat at 200 mg/kg as micronized suspension after 24 hrs; format: ADME, organism-based; set-up: dose 200 mg/kg; conditions: in vivo
[20] = AUC in rat at 100 mg/kg as micronized suspension after 24 hrs; format: ADME, organism-based; set-up: time < 24 hr, dose 100 mg/kg; conditions: plasma
[21] = Systemic clearance in BALB/c mouse at 10 mg/kg, iv after 24 hrs; format: ADME, organism-based; set-up: dose 10 mg/kg, route intravenous; conditions: in vivo
[22] = Cmax in rat at 100 mg/kg as micronized suspension after 24 hrs; format: ADME, organism-based; set-up: dose 100 mg/kg; conditions: in vivo
[23] = AUC in rat at 25 mg/kg as micronized suspension after 24 hrs; format: ADME, organism-based; set-up: time < 24 hr, dose 25 mg/kg; conditions: plasma

AUC at 4 h [1]: 14 µM·h
IC50 (Cytochrome P450 3A4): 1000 nM
Cmax [2]: 4.2 µM
SMILES: Cc1cc2c(F)c(Oc3ncnn4cc(OCCCN5CCCCC5)c(C)c34)ccc2[nH]1
inhibition at 1 µM (hERG): 70%

AUC at 4 h [1]: 20.5 µM·h
Cmax [2]: 5.9 µM
SMILES: Cc1cc2c(F)c(Oc3ncnn4cc(OCCCN5CCCC5)c(C)c34)ccc2[nH]1
inhibition at 1 µM (hERG): 66%

AUC at 4 h [1]: 0.2 µM·h
Cmax [2]: 0.2 µM
SMILES: Cc1cc2c(F)c(Oc3ncnn4cc(O)c(C)c34)ccc2[nH]1

AUC at 4 h [1]: 96 µM·h
IC50 (Cytochrome P450 3A4): 1000 nM
Cmax [2]: 27 µM
SMILES: Cc1cc2c(F)c(Oc3ncnn4cc(OCCCNS(C)(=O)=O)c(C)c34)ccc2[nH]1

AUC at 4 h [1]: 185 µM·h
IC50 (Cytochrome P450 3A4): 17000 nM
Cmax [2]: 57 µM
SMILES: Cc1cc2c(F)c(Oc3ncnn4cc(OCCCS(C)(=O)=O)c(C)c34)ccc2[nH]1
IC50 [3]: 20000 nM

The next lines start with the molecule.

SMILES: Cc1cc2c(F)c(Oc3ncnn4cc(OCCC5CCN(C)CC5)c(C)c34)ccc2[nH]1
AUC at 4 h [1]: 2.2 µM·h
IC50 (Cytochrome P450 3A4): 700 nM
Cmax [2]: 0.7 µM

SMILES: Cc1cc2c(F)c(Oc3ncnn4cc(OC[C@H](C)O)c(C)c34)ccc2[nH]1
AUC at 4 h [1]: 146 µM·h
Cmax [2]: 56 µM

SMILES: Cc1cc2c(F)c(Oc3ncnn4cc(OCCN5CCC(O)C5)c(C)c34)ccc2[nH]1 (single isomer, unassigned)
AUC at 4 h [1]: 9.9 µM·h
inhibition at 1 µM (hERG): 38%
Cmax [2]: 3 µM

SMILES: COC[C@@H](O)COc1cn2ncnc(Oc3ccc4[nH]c(C)cc4c3F)c2c1C
AUC at 4 h [1]: 128 µM·h
IC50 [3]: 18000 nM
IC50 (Cytochrome P450 3A4): 1000 nM
Cmax [2]: 41 µM

SMILES: Cc1cc2c(F)c(Oc3ncnn4cc(OC[C@@H](C)O)c(C)c34)ccc2[nH]1 [BRIVANIB]
Cmax [4]: 6.4 µM
AUC at 4 h [1]: 136 µM·h
AUC at 24 h [5]: 224 µM·h
IC50 [3]: 18000 nM
Vd [6]: 2 L/kg
AUC at 24 h [7]: 13.4 µM·h
AUC at 24 h [8]: 49 µM·h
MRT [9]: 3.6 h
Cmax [10]: 0.55 µM
half-life [11]: 3.6 h
Tmax [12]: 1 h
IC50 [13]: 89 nM
Ki [13]: 28 nM
Activity (H3396 [14]): 97%
bioavailability [15]: 88%
Activity (H3396 [16]): 85%
AUC at 24 h [17]: 7.61 µM·h
half-life [18]: 2.7 h
Cmax [19]: 1.71 µM
AUC at 24 h [20]: 8.43 µM·h
clearance [21]: 9.3 mL/min/kg
Cmax [22]: 2.05 µM
AUC at 24 h [23]: 3.35 µM·h
Cmax [2]: 41 µM
